The text below walks through data of patent US20250346613A1, “BORIC ACID PROTEASOME INHIBITOR AND USE THEREOF” (ARTIVILA BIOPHARMA, priority 2022, published 2025).

In experiment [1] the target is T1, β5i subunit of the 20S proteasome (Homo sapiens, UniProt P20618+P28062).
T1 construct: The proteasome tested in the present disclosure was derived from Raji cells; endogenous in cells; host or cells: Raji cells
The experiment can be described thus: Proteasome inhibitory activity, β5i subunit (Raji cells treated with compound, lysed, Ac-ANW-AMC substrate). The class given is cell-based. As to conditions: proteasome from Raji cells incubated with compound 4 h. The text has this: In the present disclosure, the fluorescent peptide substrate Ac-Ala-Asn-Trp-AMC (abbreviated as Ac-ANW-AMC) and the […] kit containing a fluorescent peptide substrate Suc-Leu-Leu-Val-Tyr-AMC (abbreviated as Suc-LLVY-AMC) (Promega, Item No. G8660) were used to detect the activities of the β5i subunit and β5c subunit of the 20S proteasome, respectively.
The proteasome tested in the present disclosure was derived from Raji cells, the fluorescent substrate Ac-ANW-AMC was purchased from Roche company, and other reagents were purchased from Sigma company. The experimental system was divided into two parts of cell lysis system and enzyme reaction system. […] The starting concentration of the compound (inhibitor) was 1 μM. It was diluted in a 3-fold serial dilution to a total of 8 concentrations, that is, the administration concentration can be 1 μM, 0.333 μM, 0.111 μM . . . , respectively, and the specific experimental process was described below.
Raji cells (1×10^6 cells) cryopreserved in liquid nitrogen were thawed rapidly in a water bath at 37° C. The cell pellet was transferred to a 15 mL centrifuge tube, added with 9 mL of fresh medium (Gibco RPMI1640 added with 10% fetal bovine serum and 1% double antibiotics), centrifuged at 120 g for 5 min, inoculated to 25 mL cell culture flasks, and passaged once every 2-3 days.
The compound was weighed and dissolved in DMSO to a concentration of 10 mM. The compound was then sequentially diluted to concentrations of 200 μM, 66.67 μM, 22.22 μM, 7.41 μM, 2.47 μM, 0.82 μM, 0.27 μM, and 0.091 μM with fresh medium. Raji cells in a good growth status were inoculated into a 48-well cell culture plate at 7×10^5 cells/mL.
Raji cells in a good growth status were taken and counted. They were then inoculated to a 48-well cell culture plate at 7×10^5 cells/mL. Each 5 μL of the various concentrations of diluted compounds above were taken and added to the culture plate inoculated with cells, and the lowest concentration of compound was 0 μM. The drug bortezomib (Velcade) and ONX-0914 were used as the positive control compounds. All cells were incubated at 37° C. for 4 h.
The compound-treated cells were sequentially transferred into 1.5 mL centrifuge tubes, centrifuged at 10000 rpm for 2 min, and the supernatants were removed. The cell pellet was resuspended in 1 mL of PBS, centrifuged at 10000 rpm for 2 min, and the supernatant was removed. Cells were resuspended by adding 100 μL of cell lysate (50 mM Tris of pH 7.5, 150 mM NaCl, 5 mM MgCl2, 5 mM ATP, 1 mM DTT, 0.01% NP-40, 1 mM Digitonin, and Cocktail), placed in an ice bath for 30 min, and centrifuged at 13000 rpm for 10 min.
2 mg of fluorescent peptide substrate AC-ANW-AMC was dissolved in 424.7 μL of DMSO to obtain an 8 mM stock solution, and stored at −20° C. The stock solution was diluted 100-fold to a final concentration of […] for use in the reaction system. The fluorescent peptide substrate Suc-LLVY-AMC was prepared according to the instructions of the Promega kit.
Each 20 μL of the prepared proteasome solution above was added to a 96-well white luciferase microplate and added with 25 μL of AC-ANW-AM substrate buffer solution (50 mM Tris of pH 7.5, 150 mM NaCl, 5 mM MgCl2, 5 mM ATP, 80 uM Ac-ANW-AMC and 1 mM DTT) and 25 μL of Suc-LLVY-AMC substrate buffer solution for 10 min of reaction at 37° C. in the dark. Fluorescence values were read at 345 nm/445 nm by using a fluorence microplate reader.
The data were exported and the inhibition rate in percentage was calculated according to the following formula: Inhibition rate=(maximum signal value-compound signal value)/(maximum signal value−blank signal value)×100%.
Where the maximum signal was obtained from cell lysates treated with DMSO only, and the blank signal was obtained from wells containing only lysates.

The test system of experiment [2] is MM.1S cell strain. Nature of the experiment: Inhibitory activity of cell strain (CellTiter-Glo). The class given is cell-based. As to conditions: Homo sapiens, MM1.S, 72 h incubation. The protocol: The cells used in this experiment were MM.1S cell strain and the detection reagent was CellTiter-Glo (Promega). […] The experimental process was described below. MM.1S cells in the logarithmic growth phase and in a good status were digested into individual cells by trypsin, centrifuged to remove the supernatant, and counted. Cells were diluted and 100 μL of cell suspension per well was added to a 96-well enzyme-coated plate at 1×10^5 cells per well. The wells containing only RPMI1640 complete medium were set as blank control. The 96-well plate was transferred to a 37° C. incubator containing 5% CO2 for 24 h of incubation.
The compound was accurately weighed and dissolved in DMSO to a concentration of 10^−2 M. 10 μL of compound was pipetted to 190 μL of DMSO to given a 5×10^−4 M compound. 6 μL of the compound (5×10^−5 M) was pipetted to a new 96-well microplate containing 194 μL of RPMI1640 complete medium and diluted in a 3-fold gradient dilution. 50 μL of the diluted compound was transferred to the 96-well microplate containing the cells such that the final compound concentrations were 5×10^−7 M, 1.67×10^−7 M, 5.55×10^−8 M, 1.85×10^−8 M, 6.17×10^−9 M, 2.06×10^−9 M, 6.86×10^−10 M, 2.29×10^−10 M, and 0 M. For the 0 M, no compound was added, and the same concentration of DMSO was added. The marketed drug bortezomib was used as a positive control. The 96-well microplate added with compounds was placed in the 37° C. incubator for 72 h of incubation.
At the predetermined detection time, the 96-well microplate to be detected was placed at room temperature, added with 40 μL of detection reagent (CellTiter-Glo) per well, and covered with a dark lid or piece of aluminium foil. The contents were mixed on an orbit oscillator for 10 min for complete cell lysis, with a vibration speed of 150 rpm. Luminescence values were detected on a multifunctional microplate reader (BioTek Synergy H1 Hybrid Multi-Mode Reade).
The data were exported and the percentage inhibition was calculated according to the following formula: Inhibition rate=(maximum signal value-compound signal value)/(maximum signal value−blank signal value)×100%, • wherein maximum signal was obtained from alone DMSO-treated cells, and blank signal was obtained from wells containing only culture medium.
For orientation: ATP-based viability assays read luminescence as a measure of living cells.

Molecules are shown by their SMILES.

A word on the IC50: it is the midpoint of a concentration-inhibition curve. As to `O=C(/C=C/C(=O)N[C@@H](Cc1ccccc1)B(O)O)Nc1ccccc1` [Example 8], the IC50 in experiment [1] and in experiment [2] was 50 to 200 nM in each case. As for `Cc1ccc(CNC(=O)/C=C/C(=O)N[C@@H](CC(C)C)B(O)O)cc1` [Example 11], the IC50 in experiment [2] was in the range of 200 to 500 nM. Still for that read-out and setting: next, `O=C(/C=C/C(=O)N[C@@H](Cc1ccccc1)B(O)O)NCc1cc(Cl)ccc1Cl` [Example 12]: 200 to 500 nM. The same measure, in the same setting: next, `[2H]/C(C(=O)NCc1ccccc1)=C(/[2H])C(=O)N[C@@H](Cc1ccccc1)B(O)O` [Example 17, (R,E)-(1-(4-(benzylamino)-4-oxobut-2-enamido-2,3-D2)-2-phenylethyl)boric acid]: 50 to 200 nM; `COc1cccc(CCNC(=O)C(C)C(=O)N[C@@H](Cc2ccccc2)B(O)O)c1` (stereo partly drawn) [Example 61, ((1R)-1-(3-((3-methoxyphenylethyl)amino)-2-methyl-3-oxopropionamido)-2-phenylethyl)boric acid]: 50 to 200 nM; `COc1cccc(NC(=O)C(C)C(=O)N[C@@H](Cc2ccccc2)B(O)O)c1` (stereo partly drawn) [Example 67, ((1R)-1-(3-((3-methoxyphenyl)amino)-2-methyl-3-oxopropionamido)-2-phenylethyl)boric acid]: 50 to 200 nM. For the compound `COc1ccc(NC(=O)C(C)C(=O)N[C@@H](Cc2ccc(C)cc2)B(O)O)cc1` (stereo partly drawn) [Example 70, ((1R)-1-(3-((4-methoxyphenyl)amino)-2-methyl-3-oxopropionamido)-2-(p-tolyl)ethyl)boric acid], the IC50 in experiment [2] fell in the range of 50 to 200 nM. On the same count and under the same terms, next, `COc1cccc(CNC(=O)C(Cc2ccccc2)C(=O)N[C@@H](Cc2coc3ccccc23)B(O)O)c1` (stereo partly drawn) [Example 71, ((1R)-2-(benzofuran-3-yl)-1-(2-benzyl-3-((3-methoxybenzyl)amino)-3-oxopropionamido)ethyl)boric acid]: ≤ 50 nM. The same measure, in the same setting: under `COc1cccc(CNC(=O)C(Cc2ccccc2)C(=O)N[C@@H](Cc2ccc(-c3ccccc3)cc2)B(O)O)c1` (stereo partly drawn) [Example 72, ((1R)-2-([1,1′-biphenyl]-4-yl)-1-(2-benzyl-3-((3-methoxybenzyl)amino)-3-oxopropionamido)ethyl)boric acid] stands ≤ 50 nM; under `CC(C(=O)NCc1cccc(OC(F)(F)F)c1)C(=O)N[C@@H](Cc1ccc(-c2ccccc2)cc1)B(O)O` (stereo partly drawn) [Example 74, ((1R)-2-([1,1′-biphenyl]-4-yl)-1-(2-methyl-3-oxo-3-((3-(trifluoromethoxy)benzyl)amino)propanamido)ethyl)boronic acid], ≤ 50 nM; under `COc1cccc(CNC(=O)C(C(=O)N[C@@H](Cc2ccc(-c3ccccc3)cc2)B(O)O)C(C)C)c1` (stereo partly drawn) [Example 76, ((1R)-2-([1,1′-biphenyl]-4-yl)-1-(2-((3-methoxybenzyl)carbamoyl)-3-methylbutanamido)ethyl)boric acid], ≤ 50 nM. On to `CC(C(=O)NCc1cccc(C(F)(F)F)c1)C(=O)N[C@@H](Cc1ccc(-c2ccccc2)cc1)B(O)O` (stereo partly drawn) [Example 78, ((1R)-2-([1,1′-biphenyl]-4-yl)-1-(2-methyl-3-oxo-3-((3-(trifluoromethyl)benzyl)amino)propionamido)ethyl)boric acid], for which the IC50 in experiment [2] was ≤ 50 nM. Turning to `Cc1ccc(C[C@H](NC(=O)C(C)C(=O)NCc2cccc(OC(F)(F)F)c2)B(O)O)cc1` (stereo partly drawn) [Example 86, ((1R)-1-(2-methyl-3-oxo-3-((3-(trifluoromethoxy)benzyl)amino)propionamido)-2-(p-tolyl)ethyl)boric acid], in experiment [2], the IC50 was ≤ 50 nM. Take `O=C(NCc1cccc(OC(F)(F)F)c1)C(F)C(=O)N[C@@H](Cc1ccccc1)B(O)O` (stereo partly drawn) [Example 95, ((1R)-1-(2-fluoro-3-oxo-3-((3-(trifluoromethoxy)benzyl)amino)propionamido)-2-phenylethyl)boric acid]: the IC50 in experiment [2] is ≤ 50 nM. Take `Cc1ccc(C[C@H](NC(=O)C(F)C(=O)NCc2cccc(OC(F)(F)F)c2)B(O)O)cc1` (stereo partly drawn) [Example 96, ((1R)-1-(2-fluoro-3-oxo-3-((3-(trifluoromethoxy)benzyl)amino)propionamido)-2-(p-tolyl)ethyl)boric acid]: in experiment [2], the IC50 was ≤ 50 nM. Still for that read-out and setting: under `O=C(NCc1cccc(OC(F)(F)F)c1)C(F)C(=O)N[C@@H](Cc1coc2ccccc12)B(O)O` (stereo partly drawn) [Example 97, ((1R)-2-(Benzofuran-3-yl)-1-(2-fluoro-3-oxo-3-((3-(trifluoromethoxy)benzyl)amino)propionamido)ethyl)boric acid] stands ≤ 50 nM; under `Cc1ccc(C[C@H](NC(=O)C(F)(F)C(=O)NCc2cccc(OC(F)(F)F)c2)B(O)O)cc1` [Example 98, (R)-(1-(2,2-difluoro-3-oxo-3-((3-(trifluoromethoxy)benzyl)amino)propionamido)-2-(p-tolyl)ethyl)boric acid], 200 to 500 nM; under `COc1cccc(CCNC(=O)C(F)C(=O)N[C@@H](Cc2coc3ccccc23)B(O)O)c1` (stereo partly drawn) [Example 101, ((1R)-2-(Benzofuran-3-yl)-1-(2-fluoro-3-((3-methoxyphenylethyl)amino)-3-oxopropionamido)ethyl)boric acid], ≤ 50 nM. Still for that read-out and setting: next, `COc1cccc(CNC(=O)C(F)C(=O)N[C@@H](Cc2ccccc2)B(O)O)c1` (stereo partly drawn) [Example 102, ((1R)-1-(2-fluoro-3-((3-methoxybenzyl)amino)-3-oxopropionamido)-2-phenylethyl)boric acid]: ≤ 50 nM. The same measure, in the same setting: next, `COc1cccc(CNC(=O)C(F)C(=O)N[C@@H](Cc2ccc(C)cc2)B(O)O)c1` (stereo partly drawn) [Example 103, ((1R)-1-(2-fluoro-3-((3-methoxybenzyl)amino)-3-oxopropionamido)-2-(p-tolyl)ethyl)boric acid]: ≤ 50 nM; `COc1cccc(CNC(=O)C(F)C(=O)N[C@@H](Cc2coc3ccccc23)B(O)O)c1` (stereo partly drawn) [Example 104, ((1R)-2-(benzofuran-3-yl)-1-(2-fluoro-3-((3-methoxybenzyl)amino)-3-oxopropionamido)ethyl)boric acid]: ≤ 50 nM.
